The record followed here is ChEMBL document CHEMBL5604062, “ASAP - ZIKV NS2B-NS3 protease fluorescence dose response” (2024).

“And” between values parts separate entries of the source, which are not always exact repeats. Equal values may be shown once. Where only a bound is given, the exact number is not on record here.

For this assay, the target named is Nonstructural protein 3 (Zika virus, UniProt A0A024AXB9). Briefly: Functional biochemical assay to identify treatments for viral infectious disease that targets Zika NS2B-NS3 protease. Utilizing a direct enzyme activity measurement method, reading the fluorescence intensity is used to characterize the relative potency of inhibitors as IC50. The arrangement: species or system PRVABC59.
Sequence of Nonstructural protein 3 (A0A024AXB9 whole entry): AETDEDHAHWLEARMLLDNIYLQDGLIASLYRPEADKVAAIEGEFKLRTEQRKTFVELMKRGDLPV
As to `N#C[C@]1(Nc2ccc3c(c2)CNC3)C(=O)Nc2ccccc21`, it took 27.4 µM to reach half-maximal inhibition (IC50).

For the compound `O=C(Nc1ccc2c(c1)CNC2)c1ccc2c(c1)NCCO2`, the IC50 was more than 99.5 µM.

`CCc1cc(C(=O)Nc2ccc3c(c2)CNC3)sc1-c1ccc(Cl)cc1` had a half-inhibitory concentration (IC50) of more than 99.5 µM.

The compound `Cc1c(C(=O)Nc2cc(CCCN)ccn2)cc(C2CCC2)n1C` displayed a 50% inhibitory concentration (IC50) of more than 99.5 µM.

In turn, `Cc1c(C(=O)Nc2cc(CCCN)ccn2)cc(C(C)C)n1C` showed an IC50 of more than 99.5 µM.

`O=C(Nc1ccc2c(c1)CNC2)c1ccccc1-n1cccc1`: the IC50 was 25.1 µM.

Turning to `O=C(Nc1ccc2c(c1)CNC2)c1cc(Cl)cc(-n2cccc2)c1`, the IC50 was 0.091 µM and 0.084 µM.

The compound `Cc1cc(NC(=O)c2cc(C3CC3)n(C)c2C)ncc1S(N)(=O)=O` returned an IC50 of more than 99.5 µM.

Compound `O=C(O)C[C@H]1CN(c2ccc(-c3cc(Cl)cc(NC(=O)OCc4ccccc4)c3)cn2)CCO1` yielded an IC50 of more than 99.5 µM.

In turn, `O=C(Nc1ccc2c(c1)CNC2)C1CCCCC1` registered an IC50 of more than 99.5 µM.

`Cc1c(C(=O)NCc2ccc(CN)cc2)cc(C2CC2)n1C`: the half-inhibitory concentration (IC50) was more than 99.5 µM.

The compound `O=C(Nc1cc(Cl)cc(-c2cnn(Cc3ccc(C(=O)O)cc3)c2)c1)OCc1ccccc1` displayed an IC50 of 39.4 µM.

For `NCc1cc(NC(=O)c2cc(Cl)cc(NC(=O)OCc3ccccc3)c2)cc(C2=CC[C@H](C(=O)O)CC2)c1`, the 50% inhibitory concentration (IC50) was 14.6 µM.

The compound `C=C1C[C@H](c2cc(Cl)cc(NC(=O)OCc3ccccc3)c2)[C@@H](c2cccc(-c3nn[nH]n3)c2)C1` yielded an IC50 of 18.9 µM.

`O=C(Nc1ccc2c(c1)CNC2)c1cc(Cl)cc(C2CC2)c1`: the IC50 stood at 0.216 µM.

For `NCc1cc(NC(=O)c2cc(Cl)cc(NC(=O)OCc3ccccc3)c2)cc(-c2csc(CC(=O)O)c2)c1`, half-maximal inhibition (IC50) was put at 15 µM.

As for `Cc1c(C(=O)Nc2cc(-c3ccccn3)c(Br)cn2)cc(C2CC2)n1C`, the IC50 was more than 99.5 µM.

As for `O=C(O)c1cc2cc(-c3cc(Cl)cc4ncccc34)ccc2[nH]1`, the 50% inhibitory concentration (IC50) amounted to 40.3 µM.

In turn, `Nc1cc(Cl)cc(C(=O)Nc2ccc3c(c2)CNC3)c1N` yielded an IC50 of 0.354 µM.

In turn, `NCc1nc2cc(Cl)ccc2n1Cc1ccc(-c2nn[nH]n2)cc1` registered a half-maximal inhibitory concentration (IC50) of more than 99.5 µM.

`FC(F)(F)Oc1cc(Cl)cc2c(Cc3ccc(-c4nnn[nH]4)cc3)c[nH]c12` registered an IC50 of 34.1 µM.

`O=C1OCc2ccc(NC(=O)c3cc(Cl)cc4[nH]ncc34)cc21` had an IC50 of 32.3 µM.

Compound `O=C(Nc1ccc2c(c1)CNC2)c1n[nH]c2ncc(Br)cc12` registered an IC50 of 46.1 µM.

Compound `Cc1c(C(=O)Nc2cc(-c3cnn(C)c3)ccn2)cc(C2CC2)n1C` came in with an IC50 of more than 99.5 µM.

`N#Cc1cc(-c2ccc3[nH]c(C(=O)O)cc3c2)c2nc[nH]c2c1` yielded an IC50 of more than 99.5 µM.

Regarding `CCCc1sc(C(=O)Nc2ccc3c(c2)CNC3)cc1CC`, the IC50 turned out to be 20.1 µM.

On to `Cc1c(C(=O)Nc2cc(C(N)=O)c3ccccc3n2)cc(C2CC2)n1C`, for which the IC50 is more than 99.5 µM.

With `N#Cc1ccc(Cl)c(C(=O)Nc2ccc3c(c2)CNC3)c1`, it took 1.99 µM to reach half-maximal inhibition (IC50).

In turn, `CNCc1ccc(NC(=O)c2cc(Cl)cc3[nH]ncc23)cc1` yielded a half-inhibitory concentration (IC50) of 4.34 µM.

As for `Cc1c(C(=O)Nc2nccc3c2CNCC3)cc(C2CC2)n1C`, the half-inhibitory concentration (IC50) is more than 99.5 µM.

With `Cc1c(C(=O)Nc2cc(CCCN)ccn2)cc(C2CCCCC2)n1C`, the IC50 was more than 99.5 µM.

For `Cc1cc(CC(=O)O)ccc1Cc1c[nH]c2ccc(Cl)cc12`, the half-maximal inhibitory concentration (IC50) is more than 99.5 µM.

The compound `O=C(Nc1ccc2c(c1)CNC2)c1ccnc(CO)c1` yielded a 50% inhibitory concentration (IC50) of more than 99.5 µM.

In the case of `O=C(Nc1ccc2c(c1)CNC2)c1c[nH]c2ncc(F)cc12`, the half-inhibitory concentration (IC50) came out at 23.3 µM.

Compound `Cc1c(C(=O)Nc2cc(C(=O)N(C)C)ccn2)cc(C2CC2)n1C` returned a half-inhibitory concentration (IC50) of more than 99.5 µM.

`NCc1cc(NC(=O)c2cc(Cl)cc(NC(=O)OCc3ccccc3)c2)cc(-c2cccc(CC(=O)O)c2)c1` yielded a half-maximal inhibitory concentration (IC50) of 39.6 µM.

In the case of `O=C(Nc1ccc([C@H]2CCNC2)cc1)c1cc(Cl)cc2[nH]ncc12`, the IC50 is 2.51 µM.

On to `O=C(O)Cc1cc2c(c(Cc3c[nH]c4ccc(Cl)cc34)c1)OCC2`, for which the half-maximal inhibitory concentration (IC50) is more than 99.5 µM.

In turn, `CCOCCCN1Cc2ccc(NC(=O)c3cc(Cl)cc4[nH]ncc34)cc2C1` returned an IC50 of 33.1 µM.

Compound `O=C(O)c1cc2cc(-c3cc(Cl)c4[nH]c(=O)oc4c3)ccc2[nH]1` yielded a 50% inhibitory concentration (IC50) of 90.2 µM.

`O=C(Nc1ccc2c(c1)CNC2)c1cccc2[nH]ncc12` displayed an IC50 of 0.129 µM.

Take `CNC(=O)[C@]1(Nc2ccc3c(c2)CNC3)C(=O)Nc2ccccc21`: the half-maximal inhibitory concentration (IC50) was more than 99.5 µM.

Consider `NCc1cc(NC(=O)c2cc(Cl)cc(NC(=O)OCc3ccccc3)c2)cc(C2=CC[C@H](C(=O)O)C2)c1`, for which the IC50 amounted to 7.96 µM.

On to `Clc1ccc2c(c1)ncn2Cc1ccc(-c2nn[nH]n2)cc1`, for which the IC50 is more than 99.5 µM.

`NCCCc1ccnc(NC(=O)c2csc(C3CC3)n2)c1` yielded an IC50 of more than 99.5 µM.

For the compound `O=C(Nc1ccc2c(c1)CCCN2)c1cc(Cl)cc2[nH]ncc12`, the 50% inhibitory concentration (IC50) was more than 99.5 µM.

With `O=C(O)c1nccn2ncc(Cc3c[nH]c4ccc(Cl)cc34)c12`, the IC50 is more than 99.5 µM.

With `Cc1ccc(-c2cc(CN)cc([C@@H]3C[C@H]3c3cc(Cl)cc(NC(=O)OCc4ccccc4)c3)c2)cn1`, the half-maximal inhibitory concentration (IC50) came to 3.56 µM.

On to `O=C(Nc1ccc2c(c1)CNC2)[C@H]1CCc2ccccc21`, for which the IC50 was more than 99.5 µM.

`O=C(Nc1ccc2c(c1)CNC2)c1ccncc1` returned an IC50 of more than 99.5 µM.

Consider `COC(=O)c1cc(Br)cc2c(Cc3ccc(-c4nnn[nH]4)cc3)c[nH]c12`, for which the IC50 is more than 99.5 µM.

For the compound `O=C(NCC1CCNCC1)c1cc(Cl)cc2[nH]ncc12`, the 50% inhibitory concentration (IC50) worked out at 74.6 µM.

On to `Cc1ccc(NC(=O)c2cc(Cl)cc3[nH]ncc23)cc1N`, for which the concentration for half-maximal inhibition (IC50) was more than 99.5 µM.

Consider `CNC(=O)[C@]1(Nc2ccc3c(c2)CNC3)CCc2ccc(Cl)cc21`, for which the concentration for half-maximal inhibition (IC50) was 34.6 µM.

The compound `CCc1nc2c(C(=O)Nc3ccc4c(c3)CNC4)cc(Br)cc2[nH]1` returned a half-inhibitory concentration (IC50) of 0.187 µM.

Consider `Clc1ccc2nc(C3CCOCC3)n(Cc3ccc4c(c3)CNC4)c2c1`, for which the concentration for half-maximal inhibition (IC50) was more than 99.5 µM.

With `CC(C)c1nc2cc(Cl)ccc2n1Cc1ccc(-c2nn[nH]n2)cc1`, the IC50 was more than 99.5 µM.

Regarding `N[C@H]1CCc2cc(NC(=O)c3cc(Cl)cc4[nH]ncc34)ccc21`, it took 5.21 µM to reach half-maximal inhibition (IC50).

For `O=C(c1cc(Cl)cc2[nH]ncc12)N1CCC[C@H]1C1CCNCC1`, the concentration for half-maximal inhibition (IC50) was more than 99.5 µM.

Regarding `O=C1CCc2cc(NC(=O)c3cc(Cl)cc4[nH]ncc34)ccc2N1`, the IC50 was more than 99.5 µM.

Compound `Cc1ncc(Br)cc1C(=O)Nc1ccc2c(c1)CNC2` displayed an IC50 of 1.85 µM.

As for `CN1C(=O)[C@H](c2cc(Cl)cc(NC(=O)OCc3ccccc3)c2)N(c2cccc(-c3nn[nH]n3)c2)C1=O`, the 50% inhibitory concentration (IC50) turned out to be 35.3 µM.

`Cc1c(C(=O)Nc2cc(C#N)c3ccccc3n2)cc(C2CC2)n1C` gave a half-maximal inhibitory concentration (IC50) of more than 99.5 µM.

With `O=C(Nc1cc(Cl)cc(-c2cc(NCc3ccccc3)c(C(=O)O)cn2)c1)OCc1ccccc1`, the IC50 is 14 µM.

Regarding `Cc1cc(-c2ccc3[nH]c(C(=O)O)cc3c2)c2cc[nH]c(=O)c2c1`, the 50% inhibitory concentration (IC50) is more than 99.5 µM.

In the case of `CC(C)c1nc2c(C(=O)Nc3ccc4c(c3)CNC4)cc(Br)cc2[nH]1`, the half-inhibitory concentration (IC50) amounted to 0.316 µM.

Consider `NC(=O)c1[nH]c2ccc(Br)cc2c1Cc1ccc(-c2nnn[nH]2)cc1`, for which the 50% inhibitory concentration (IC50) is more than 99.5 µM.

`Cn1cc(-c2cc(CN)cc([C@@H]3C[C@H]3c3cc(Cl)cc(NC(=O)OCc4ccccc4)c3)c2)cn1` displayed an IC50 of 13.3 µM.

In turn, `Cc1oc(C2CC2)nc1C(=O)Nc1cc(CCCN)ccn1` returned an IC50 of more than 99.5 µM.
